Laboratory results taken from PMC10502144, “Anti-methicillin-resistant Staphylococcus aureus activity and safety evaluation of 14-O-[(5-ethoxycarbonyl-4,6-dimethylpyrimidine-2-yl) thioacetyl] mutilin (EDT)” (Scientific Reports, 2023).
Like-named read-outs stand apart in the source and are kept apart here. Marks after values point to notes of the source that are not given here.

Key:
[1] = system: Salmonella Typhimurium TA1535
Description: (§1) Before the test, Salmonella Typhimurium (S. Typhimurium) TA97a, TA98, TA100, TA102, TA1535 and Escherichia coli WP2uvrA pKM101 (pKM101) were first checked for their genetic integrity, including biotin dependence, rfa marker (crystal violet), biotin, histidine dependence and presence of the plasmid pKM101 (ampicillin resistance) or pAQ1 (tetracycline resistance). […] The maximum concentration of EDT was also screened using a preliminary experiment.
(§2) DMSO (0.1 mL) was directly incorporated into 1.9 mL melted top agar as the vehicle control. […] Each strain (0.1 mL, 6–7 log10 CFU/mL) was added into 2 mL of top agar in which comprised 0.5 mL S9 (10%), serial concentrations of EDT (2000, 400, 80, 16 and 3.2 μg/plate), DMSO or control chemicals for testing with the S9. For testing without S9, 0.5 mL phosphate buffer saline (PBS, pH 7.4) replaced the S9 mix. Then, the obtained top agar was melted, poured onto the surface of […] and swirled to distribute the top agar to all surfaces of medium, followed by incubation at 37 °C for 48 h. The resultant colonies were counted manually as the number of revertant colonies per plate. The experiments were performed in triplicate and the results were expressed as the average ± SD.

[2] = system: Salmonella Typhimurium TA97a; assay: Ames test, TA97a; conditions: positive control 50 μg/plate, −S9
Description: as §1, §2

[3] = system: Salmonella Typhimurium TA98; assay: Ames test, TA98; conditions: TA98, positive control 50 μg/plate, −S9
Description: as §1, §2

[4] = system: Salmonella Typhimurium TA102; assay: Ames test, TA102; conditions: TA102, positive control 50 μg/plate, −S9
Description: as §1, §2

[5] = system: Salmonella Typhimurium TA100; assay: Ames test, TA100; type: cell-based; conditions: TA100, positive control 1μL/plate, −S9
Description: as §1, §2

[6] = system: Escherichia coli WP2uvrA pKM101; assay: Ames test, pKM101
Description: as §1, §2

**Q.** With `Nc1ccc2cc3ccccc3cc2c1` [2-aminoanthracene, reference compound] as the compound, how does the “number of revertant colonies per plate” value ([1]; TA1535, positive control 10 μg/plate, +S9) read?
**A.** Its value is 740.00 ± 44.00^d.

**Q.** For `CN(C)c1ccc(N=NS(=O)(=O)[O-])cc1.[Na+]` [diaxone, reference compound], which “number of revertant colonies per plate” value [2] is on record?
**A.** Its value is 2472.00 ± 94.00^b.

**Q.** What about the “number of revertant colonies per plate” value [3] of the same compound?
**A.** Its value is 972.00 ± 37.00^b.

**Q.** And the “number of revertant colonies per plate” value [4]?
**A.** Its value is 522.00 ± 45.00^b.

**Q.** For `[N-]=[N+]=[N-].[Na+]` [sodium azide, reference compound], which “number of revertant colonies per plate” value ([1]; TA1535, positive control 1.5 μg/plate, −S9) is on record?
**A.** The value was 534.33 ± 38.67^e.

**Q.** For methyl sulfonate [reference compound], which “number of revertant colonies per plate” value [5] is on record?
**A.** Its value is 1017.33 ± 39.67^c.

**Q.** What about the “number of revertant colonies per plate” value [6] of the same compound?
**A.** Its value is 644.00 ± 38.00^c.
